Source: patent publication EP0414903A1, “NEW THIOPROLINE DERIVATIVE” (priority 1988, dated 1990)
Non-standard residues stand in square brackets, D forms with d. Residues, ends and D or L forms follow the SMILES beside them. *: point of attachment. Thz = O=C(O)[C@@H]1CSCN1; Cbz = O=C(OCc1ccccc1)*

Assays:
[1] = target: T1, bovine brain PEP (Bos taurus, UniProt Q9XTA2); assay: Inhibitory activity against proline endopeptidase (PEP), substrate Z-Gly-Pro-β-NA; assay type: biochemical; conditions: pH 7.0, 37°C
T1 construct: from tissue; host or cells: bovine brain
T1 sequence (Q9XTA2 1-710): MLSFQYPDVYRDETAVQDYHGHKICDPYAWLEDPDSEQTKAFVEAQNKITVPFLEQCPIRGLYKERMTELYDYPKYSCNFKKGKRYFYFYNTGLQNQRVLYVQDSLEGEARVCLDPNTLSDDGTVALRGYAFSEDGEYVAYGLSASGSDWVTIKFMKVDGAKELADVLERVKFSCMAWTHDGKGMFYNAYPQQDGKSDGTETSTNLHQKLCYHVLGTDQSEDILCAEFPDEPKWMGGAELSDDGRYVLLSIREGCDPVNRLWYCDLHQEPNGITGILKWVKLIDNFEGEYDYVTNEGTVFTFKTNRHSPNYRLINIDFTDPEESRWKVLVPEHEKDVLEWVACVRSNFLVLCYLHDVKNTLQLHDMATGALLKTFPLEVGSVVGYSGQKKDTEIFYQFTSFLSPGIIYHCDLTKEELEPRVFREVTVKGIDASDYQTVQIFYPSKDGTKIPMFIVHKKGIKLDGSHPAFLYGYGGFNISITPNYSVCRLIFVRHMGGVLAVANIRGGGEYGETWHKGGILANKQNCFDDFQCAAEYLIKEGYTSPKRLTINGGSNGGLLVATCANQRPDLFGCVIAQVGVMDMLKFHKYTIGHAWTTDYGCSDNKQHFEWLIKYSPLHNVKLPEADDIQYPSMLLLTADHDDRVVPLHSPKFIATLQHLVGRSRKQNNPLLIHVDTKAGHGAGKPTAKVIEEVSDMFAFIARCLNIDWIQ
Experimental: The thioproline derivatives of the general formula (I) shown above as test compound were assayed for inhibitory activity against bovine brain PEP by the following test procedure using as substrate N-benzyloxycarbonyl-glycyl-proline-β-naphthylamide (Z-Gly-Pro-β-NA).
100 µl of PEP (about 0.14 U/ml) and 100µl of one of test compound solutions adjusted to different concentrations (0, 10⁻⁹ - 10⁻⁴M) were added to 0.7 ml of 20 mM Tris-HCl buffer (pH = 7.0) containing 10 mM EDTA and 10 mM 2-mercaptoethanol, and the mixture was preincubated at 37°C for 5 minutes. […] The reaction was […] using 25% trichloroacetic acid, and the reaction mixture was centrifuged at 3,000 r.p.m. for 10 minutes. To 0.5 ml of the supernatent was added 0.5 ml of 0.1% nitrous acid, and after 3 minutes 0.05% solution of N-(l-naphthyl)etnylenediamine dihydrochloride in ethanol was added thereto. The mixture was allowed to stand at 37°C for 25 minutes and then the absorbance at 570 nm was measured.
Enzyme Activity Unit = ΔOD x 0.42 x Dilution ratio (µmol/min/ml)

[2] = test system: scopolamine-induced amnesia; assay: Step-down passive avoidance test (anti-amnestic activity, scopolamine-induced amnesia); assay type: in vivo, rats; conditions: scopolamine 0.5 mg/kg i.p., relative to scopolamine-treated group, retention trial 24 hours after acquisition
Excerpt: A step-down passive avoidance test on rats was used as the method of assay for anti-amnestic activity to estimate the preventive effect of prolylendopeptidase inhibitors on scopolamine-induced amnesia. This method of assay involved application of electric shocks to animals upon their stepping down on a grid floor to see whether they have learned that such shocks can be avoided by staying on a platform. A passive avoidance test chamber used in this experiment was comprised of an electrifiable grid floor (20 cm in length and 22 cm in width) and a platform (20 cm in length, 15 cm in width and 5 cm in height) placed at the right back corner thereof.
5-Weeks-old male rats of Wister strain weighing 100-150 g (purchased from Japan Clea Laboratory) were used in the test.
Each test compound used in the doses indicated in Tables 1 - 4 was dissolved or suspended in 4% gum arabic-containing distilled water (1.0 ml) and administered p.o. one hour before the commencement of acquisition trial. In addition, scopolamine hydrobromide dissolved in saline (0.5 ml) was intraperitoneally administered in a dose of 0.5 mg/kg 30 minutes before the acquisition trial to prepare experimental animal models of amnesia.
In the acquisition trial, the rat was placed on the platform in the test chamber and, when the animal stepped down on the grid floor, the electric current of 5.0 mA was immediately sent to the grid floor continuously until the animal went up on the platform. If the rat having gone up on the platform stayed there for more than 30 seconds, the animal was regarded to have learned the situation and taken out of the test chamber. A total time of measurement in the acquisition trial was limited to 300 seconds as maximum, and the time elapsing until the rat learned the situation was measured. In order to avoid any significant difference in the rats, those which took more than 300 seconds for the learning were excluded from the experiment.
The retention trial was carried out 24 hours after the acquisition trial. In this trial, the rat was placed again on the platform in the test chamber, the time elapsing until the animal stepped down onto the grid floor (the step-down latency) was measured.
In each of these tables they are indicated as relative step-down latency, shown by each test compound-treated group in the retention trial, to step-down latency for scopolamine-treated group (i.e. test compound-treated group's step-down latency/scopolamine-treated group's step-down latency).

| IC50 [1] | Structure (SMILES) | Relative step-down latency in retention trial (mean±S.E.) ([2]; Table 2, dose 0.008 mg/kg p.o.) | Relative step-down latency in retention trial (mean±S.E.) ([2]; Table 2, dose 0.04 mg/kg p.o.) | Relative step-down latency in retention trial (mean±S.E.) ([2]; Table 2, dose 0.2 mg/kg p.o.) | Relative step-down latency in retention trial (mean±S.E.) ([2]; Table 2, dose 1 mg/kg p.o.) | Relative step-down latency in retention trial (mean±S.E.) ([2]; Table 2, dose 5 mg/kg p.o.) | Relative step-down latency in retention trial (mean±S.E.) ([2]; Table 2, dose 25 mg/kg p.o.) | Relative step-down latency in retention trial (mean±S.E.) ([2]; Table 3, dose 12.5 mg/kg p.o.) | Relative step-down latency in retention trial (mean±S.E.) ([2]; Table 3, dose 25 mg/kg p.o.) | Relative step-down latency in retention trial (mean±S.E.) ([2]; Table 3, dose 50 mg/kg p.o.) | Relative step-down latency in retention trial (mean±S.E.) ([2]; Table 3, dose 100 mg/kg p.o.) |
| --- | --- | --- | --- | --- | --- | --- | --- | --- | --- | --- | --- |
| 10 µM | COC(OC)[C@@H]1CSCN1C(=O)[C@@H]1CSCN1C(=O)OCc1ccccc1 [Example 1, Benzyloxycarbonyl-L-thioprolyl-L-thioprolinal dimethyl acetal] | 0.9±0.1 | 2.4±1.1 | 2.5±1.5 | 1.4±0.3 | 1.1±0.4 | 1.6±0.6 |  |  |  |  |
| 250 µM | CCOC(OCC)[C@@H]1CSCN1C(=O)[C@@H]1CSCN1C(=O)OCc1ccccc1 [Example 2, Benzyloxycarbonyl-L-thioprolyl-L-thioprolinal diethyl acetal] | 1.5±0.6 | 2.7±1.4 | 1.7±0.9 | 2.3±1.2 | 1.5±0.6 | 1.3±0.7 |  |  |  |  |
|  | O=C[C@@H]1CSCN1C(=O)[C@@H]1CSCN1C(=O)OCc1ccccc1 [ZTT, Benzyloxycarbonyl-L-thioprolyl-L-thioprolinal, reference compound] (Cbz-[Thz]-[Thz]-aldehyde) | 1.0±0.3 | 3.0±1.2 | 2.6±0.9 | 1.6±0.8 | 1.0±0.2 | 1.4±0.9 |  |  |  |  |
|  | COc1ccc(C(=O)N2CCCC2=O)cc1 [aniracetam, reference compound] |  |  |  |  |  |  | 1.1±0.4 | 1.6±0.6 | 2.3±0.6 | 0.7±0.3 |
